According to USRE43000E1, “Artificial riboswitch for controlling pre-mRNA splicing” (City of Hope, priority 2005, dated 2011):
“Also recorded” adds a separate entry of the source.

Key:
Format in all cases: biochemical
AdML-21AG pre-mRNA = test: In vitro splicing of AdML-21AG pre-mRNA (no theophylline binding site); conditions: up to maximum tested dose of theophylline
Description: (§1) Nuclear extracts were prepared from HeLa cells (obtained from National Cell Culture), essentially as described by Dignam et al., (Dignam et al., 1983). To ensure that theophylline binds to its RNA target, a solution (5 μl) consisting of ^32P-labeled pre-mRNA (5-10 fmol, ˜10,000 cpm per reaction), indicated concentration of theophylline, 0.5 μl BC300 (20 mM HEPES, pH 8.0, 20% glycerol, 300 mM KCl, 0.2 mM EDTA) and 0.25 μl 160 mM MgCl2 were heated to 65° C. for 5 minutes, followed by 20 minutes incubation at room temperature. Next, 0.5 mM ATP, 20 mM creatine phosphate, 0.4 units of RNasin (Promega), 1.0 mM DTT, 6.25 μl HeLa nuclear extract, and water up to 12.5 μl (all concentrations are final) was added and incubation continued at 30° C. for the indicated time. Where indicated, theophylline was substituted by caffeine or water. […] Splicing intermediates and products were analyzed by electrophoresis in 13% denaturing polyacrylamide gels. The fractionated RNAs were visualized by PhosphorImager (Molecular Dynamics) and RNA signals were quantified by ImageQuant version 4.2 software (Molecular Dynamics) or ImageJ version 1.36 software (Rasband, W. S., ImageJ, U.S. National Institutes of Health, Bethesda, Md., http://rsb.info.nih.gov/ij, 1997-2006).

[1] = tested on: AdML-Theo-3′Minx pre-mRNA; test: Alternative 3′ splice site choice, in vitro splicing of AdML-Theo-3′Minx pre-mRNA; conditions: 0.5 mM theophylline
Excerpt: Alternative splicing plays an important role in the regulation of gene expression in higher eukaryotes. Alternative splicing is normally regulated by the regulatory proteins, which bind to the specific regions of pre-mRNA and enhance or repress the ability of the spliceosome to recognize the splice sites flanking the regulated exon (Black, 2003; Graveley, 2001). […] In AdML-Theo-3′Minx pre-mRNA, the proximal 3′ ss AG is embedded within the theophylline-binding sequence, while the distal 3′ splice site is unmodified. It was contemplated that the binding of theophylline to its target will repress the recognition of the proximal 3′ splice site thereby, redirecting the splicing machinery to activate the distal 3′ splice site. […]
(§2) Nuclear extracts were prepared from HeLa cells (obtained from National Cell Culture), essentially as described by Dignam et al., (Dignam et al., 1983). […] Splicing intermediates and products were analyzed by electrophoresis in 13% denaturing polyacrylamide gels. The fractionated RNAs were visualized by PhosphorImager (Molecular Dynamics) and RNA signals were quantified by ImageQuant version 4.2 software (Molecular Dynamics) or ImageJ version 1.36 software (Rasband, W. S., ImageJ, U.S. National Institutes of Health, Bethesda, Md., http://rsb.info.nih.gov/ij, 1997-2006).

AdML BPT15AG pre-mRNA = test: In vitro splicing of AdML pre-mRNA with branchpoint sequence within the theophylline aptamer (AdML BPT15AG)
Excerpt: Since the choice of alternative splice sites is generally made at early stages of spliceosome assembly, it was next examined whether a theophylline riboswitch could be engineered to control splicing prior to the first step. A series of pre-mRNA substrates were constructed in which the branchpoint sequence (BPS) was inserted within the theophylline aptamer. […] To determine whether theophylline-mediated inhibition was dose dependent and to identify the optimum concentration for controlling splicing, the splicing experiment was repeated using AdML BPT15AG in the presence of varying concentrations of theophylline.
as §1

AdML-Theo-29AG pre-mRNA = test: Spliceosome assembly assay with AdML-Theo-29AG pre-mRNA
Description: To investigate the effect of theophylline on spliceosome assembly, ^32P-labeled AdML-Theo-29AG pre-mRNA was incubated under splicing conditions in the absence or presence of theophylline. Aliquots were removed at various time points, followed by the separation of complexes on native agarose gels according to the published protocol (Das and Reed, 1999).
Spliceosome assembly and separation of individual complexes were performed essentially as described earlier (Das and Reed, 1999). Briefly, pre-mRNA (˜5 ng) was incubated in HeLa nuclear extract in the absence or presence of theophylline (12.5 μl total volume) under the conditions that support in vitro splicing. After the incubation, 2.5 μl of 4 μg/μl heparin and 2.5 μl of 5× loading dye containing 1×TBE (89 mM Tris, 89 mM boric acid, 2.5 mM EDTA), 20% glycerol, 0.25% bromophenol blue, 0.25% xylene cyanol) was added and the 3 μl aliquots of each reaction mixture were loaded on a 2% horizontal low-melting agarose gels followed by the spliceosome complexes at 70 V for 3 h in Tris-glycine running buffer at room temperature (Konarska and Sharp, 1986). Gels were fixed in 10% acetic acid, 10% methanol for 30 min, and then dried under vacuum at 80° C.

[2] = tested on: AdMLTheo54Mut, AdMLTheo57Mut, AdMLTheo510Mut, AdMLTheo513Mut pre-mRNAs; test: In vitro splicing of AdML pre-mRNAs with 5′ ss embedded in the theophylline aptamer
Excerpt: Similar experiments were run using pre-mRNA substrates wherein the 5′ ss rather than the 3′ ss was embedded within the theophylline binding aptamer. Plasmids encoding […] 5′ ss embedded AdML pre-mRNA derivatives (AdMLTheo54Mut, AdMLTheo57Mut, AdMLTheo510Mut, and AdMLTheo513Mut) were constructed using a standard PCR based approach (FIG. 32A). The length of the lower aptamer stem in these substrates varied from 4 to 13 nucleotides. To prevent the activation of a cryptic 5′ ss, the GU's (potential 5′ ss) upstream of the authentic 5′ ss were mutated to GC. […] The proximal to distal product ratio decreased in the presence of theophylline in the 10- and 13-nucleotide lower aptamer substrates (FIGS. 34A and B). Theophylline induced alternative splicing in a dose-dependent manner (FIGS. 35A and B).
as §2

ABT0M pre-mRNA = test: Alternative splicing (exon 2 exclusion/inclusion) of ABT0M pre-mRNA in vitro
Excerpt: Naturally-occurring RNA structure elements as well as artificial stem-loop structures are known to influence alternative splicing. To determine whether theophylline-induced secondary structure can likewise influence alternative splicing, a series of model splicing substrates were constructed consisting of three exons interrupted by two introns (FIG. 28). While intron 1 BPS was inserted within TBS, the BPS of intron 2 remained unchanged. The strength of 5′ ss in exon 2 increased in the following order: ABT0M<ABT2M<ABT4M<ABT6M<ABT8M. It was hypothesized that in the presence of theophylline, intron 1 branchpoint would be sequestered within the RNA-theophylline complex, which in turn should repress excision of intron 1 and enable intron 2 branchpoint to choose between the 5′ ss of exons 1 and 2 for the first step of splicing. […]
as §2

Cn1c(=O)c2[nH]cnc2n(C)c1=O [theophylline]
effect on splicing of AdML-21AG pre-mRNA (AdML-21AG pre-mRNA): failed to elicit any effect; also recorded: exerts no effect; also recorded: virtually unaffected | increase of ratio of distal to proximal 3′ splice site vs control [1]: ~3 fold | effect on AdML BPT15AG splicing reaction (AdML BPT15AG pre-mRNA; 250 μM theophylline): could affect the splicing reaction; also recorded: can affect splicing reaction | splicing inhibition of AdML BPT15AG (AdML BPT15AG pre-mRNA; 0.5 mM theophylline): 50% | yield of spliced product of AdML derivatives with BPS in upper aptamer stem (AdML BPT15AG pre-mRNA; AdMLBPT12AG, AdMLBPT15AG, AdMLBPT18AG, theophylline added): significantly lowered the yield of the spliced product | effect on spliceosomal complexes (AdML-Theo-29AG pre-mRNA): accumulation of complex C | proximal to distal product ratio ([2]; 10- and 13-nucleotide lower aptamer substrates): decreased | effect on splicing of 5′ ss embedded substrates ([2]; lower aptamer stem 4 to 13 nucleotides): inhibit splicing | exon 2 exclusion in ABT0M splicing vs control (ABT0M pre-mRNA): promoted exon 2 exclusion
